In patent publication US10059668B2 (Mirati Therapeutics, Inc., priority 2015, dated 2018):

How the values were obtained:
[1] = target: purified N-terminal truncated human LSD1 enzyme (aa 151-852) (Homo sapiens (Human), UniProt O60341); assay: LSD1 fluorescence coupling enzymatic assay (horseradish peroxidase/Amplex Red); type: biochemical; settings: 50 nM LSD1, 30 min pre-incubation, 10 μM histone 3.3 peptide (aa 1-21), 10-point dose-response; read-out: IC50 (nM), Inhibition of LSD1 Activity
Protocol: Briefly, compounds of the present invention were solubilized in DMSO and a series of 10, three-fold serial dilutions were made for each compound in 15% DMSO. The initial starting concentration for the serial dilutions of each compound was 10 μM.
An aliquot of each serial dilution of test compound was added to a 96 well plate containing 50 nM purified N-truncated LSD1 enzyme (RBC Cat# PDM-11-350), 50 mM Tris-HCl, pH 7.5, 0.05% CHAPS and 1% DMSO in a 10 microliter reaction volume. The plate was pre-incubated at room temperature for 30 min to which 10 μM of histone 3.3 peptide (aa 1-21) was added to initiate the enzymatic reaction. The reaction mixture was incubated at room temperature for one hour. […] The IC50 value for each compound was determined from each 10-point dose-response curve using GraphPad Prism 4 software with a sigmodial dose response.

MV4-11 cells = assay: Inhibition of LSD1-mediated cellular proliferation, CellTiter Glo luminescence assay; type: cell-based, human; settings: Day 7, cell viability by CellTiter Glo
Protocol: The MV4-11 cell line cell line was established from the blast cells of a person with biphenotypic B-myelomonocytic leukemia.
Inhibition of LSD1-mediated cellular proliferation by compounds of Formula (I) was measured in a CellTiter Glo luminescence assay (Promega Corp), which determines the number of viable cells by quantitating the amount of ATP, using a BMG LabTech CLARIOStar instrument in accordance with the manufacturer's instructions. Briefly, MV4-11 cells were plated at a density of 1000 cells/90 μl/well in 96 well culture plates and cultured in IMDM medium (Gibco) supplemented with 10% fetal bovine serum (FBS) and 1% penicillin and 1% streptomycin at 37° C. […] Control samples lacking test compound or cells were processed in parallel. The plates were incubated at 37° C. for four days and thereafter 50 μl fresh medium containing the same concentration of test compound was added. The plates were incubated for an additional three days (Day 7). A baseline measurement, as described below, was taken for a time zero point at Day 0.
At Day 7, the supernatant was removed by aspiration and the plate was allowed to equilibrate to room temperature (˜15 min). The cells were lysed using 45 μl (30 μl for Day 0) of Cell Titer Glo reagent (Promega Corp). The plates were shaken for two minutes and incubated at room temperature for 30 minutes. The degree of inhibition of cell viability was determined using a spectrophotometric readout by measuring the luminescence at 340 nm and the EC50 concentration for each compound was calculated using Graph Pad Prism 4 software.

Q: Which results are given for `C(=C\c1ccc(CN2CCC(N[C@@H]3C[C@H]3c3ccccc3)CC2)cc1)/c1ccccc1` (relative stereo) [Example 12]?
A: IC50 [1]: 23 nM; EC50 (MV4-11 cells): 32 nM

Q: `CS(=O)(=O)NC(=O)c1ccc(CN2CCC(N[C@@H]3C[C@H]3c3ccccc3)CC2)cc1` [Example 34, N-(Methylsulfonyl)-4-((4-(((1R,2S)-2-phenylcyclopropyl)amino)piperidin-1-yl)methyl)benzamide] was tested. Which IC50 [1] did it give?
A: 3 nM

Q: And the EC50 (MV4-11 cells; Homo sapiens, 168 h)?
A: 60 nM

Q: How did the IC50 [1] turn out when `C(=C\c1cccc(CN2CCC(N[C@@H]3C[C@H]3c3ccccc3)CC2)c1)/c1ccccc1` (relative stereo) [Example 13, N-(trans-2-phenylcyclopropyl)-1-(3-((E)-styryl)benzyl)piperidin-4-amine] was run?
A: 17 nM

Q: And the EC50 (MV4-11 cells; Homo sapiens, 168 h)?
A: 37 nM

Q: Which IC50 [1] does the source give for `CS(=O)(=O)NC(=O)Cc1ccc(CN2CCC(CN[C@@H]3C[C@H]3c3ccccc3)CC2)cc1` [Example 57] here?
A: 44 nM

Q: What about the EC50 (MV4-11 cells; Homo sapiens, 168 h) of the same compound?
A: 1 nM

Q: For `CONC(=O)/C=C/c1ccc(CN2CCC(N[C@@H]3C[C@H]3c3ccccc3)CC2)cc1` (relative stereo) [Example 1, (E)-N-Methoxy-3-(4-((4-(((trans)-2-phenylcyclopropyl)amino)piperidin-1-yl)methyl)phenyl)acrylamide], which IC50 [1] is on record?
A: 15 nM

Q: How did the IC50 [1] turn out when `CS(=O)(=O)NC(=O)/C=C/c1ccc(CN2CCC(N[C@@H]3C[C@H]3c3ccccc3)CC2)cc1` [Example 15, (E)-N-(Methylsulfonyl)-3-(4-((4-(((1R,2S)-2-phenylcyclopropyl)amino)piperidin-1-yl)methyl)phenyl)acrylamide] was run?
A: 10 nM

Q: What does the source list for `CS(=O)(=O)NC(=O)Cc1ccc(CN2CCC(N[C@@H]3C[C@H]3c3ccccc3)CC2)cc1` [Example 35, N-(Methylsulfonyl)-2-(4-((4-(((1R,2S)-2-phenylcyclopropyl)amino)piperidin-1-yl)methyl)phenyl)acetamide]?
A: IC50 [1]: 25 nM; EC50 (MV4-11 cells; Homo sapiens, 168 h): 30 nM

Q: `C(=C\c1nnn[nH]1)/c1cccc(CN2CCC(N[C@@H]3C[C@H]3c3ccccc3)CC2)c1` (relative stereo) [Example 14] was tested. Which IC50 [1] did it give?
A: 118 nM

Q: And the EC50 (MV4-11 cells)?
A: 174 nM

Q: With `CS(=O)(=O)NC(=O)c1ccc(CN2CCC(CN[C@@H]3C[C@H]3c3ccccc3)CC2)cc1` [Example 53, N-(Methylsulfonyl)-4-((4-((((1R,2S)-2-phenylcyclopropyl)amino)methyl)piperidin-1-yl)methyl)benzamide] as the compound, how does the IC50 [1] read?
A: 27 nM

Q: What about the EC50 (MV4-11 cells; Homo sapiens, 168 h) of the same compound?
A: 19 nM

Q: Which IC50 [1] does the source give for `O=C(/C=C/c1ccc(CN2CCC(CN[C@@H]3C[C@H]3c3ccccc3)CC2)cc1)NS(=O)(=O)c1ccccc1` [Example 48, (E)-3-(4-((4-((((1R,2S)-2-Phenylcyclopropyl)amino)methyl)piperidin-1-yl)methyl)phenyl)-N-(phenylsulfonyl)acrylamide] here?
A: 33 nM

Q: What about the EC50 (MV4-11 cells; Homo sapiens, 168 h) of the same compound?
A: 9 nM

Q: Which IC50 [1] does the source give for `CS(=O)(=O)NC(=O)/C=C/c1ccc(CN2CCC(N[C@@H]3C[C@H]3c3ccccc3)CC2)cc1` (relative stereo) [Example 2, (E)-N-(Methylsulfonyl)-3-(4-((4-(((trans)-2-phenylcyclopropyl)amino)piperidin-1-yl)methyl)phenyl)acrylamide] here?
A: 30 nM

Q: How did the EC50 (MV4-11 cells; Homo sapiens, 168 h) turn out when `CS(=O)(=O)NC(=O)/C=C/c1ccc(CN2CCC(CN[C@@H]3C[C@H]3c3ccccc3)CC2)cc1` [Example 49, (E)-N-(methylsulfonyl)-3-(4-((4-((((1R,2S)-2-phenylcyclopropyl)amino)methyl)piperidin-1-yl)methyl)phenyl)acrylamide] was run?
A: 26 nM
